According to US11433111B2 (priority 2019, dated 2022):

Tested on: scopolamine induced memory impairment in male Swiss albino mice
Assay: Passive avoidance test, scopolamine induced memory impairment
Conditions: 5 mg/kg p.o.; scopolamine 1 mg/kg i.p.; mean ± SEM of six mice
Description: The rectangular larger compartment has 50 cm×50 cm grid floor and wooden walls of 35 cm height. The box was illuminated with a 100-W bulb placed 150 cm above the center. It has a roof, which can be opened or closed. One of the walls has a 6 cm×6 cm opening which to a dark smaller compartment having dimensions of 15 cm×15 cm. This compartment is provided with an electrifiable grid, which is connected to a constant current stimulator, and a ceiling that can be opened or closed. The connection between the two compartments can be closed with a sliding door made of transparent Plexiglas. […] The experiment was divided into three parts: An exploration test, Learning (Electric shock), and Retention testing.
The exploration test is done in three trials. During this, mice are placed in the center of the larger compartment facing away from the entrance to the dark compartment. The door between the two compartments is kept open. The mice are allowed to explore the apparatus (both larger and smaller compartments) for 3 minutes. In each trial, two things will be examined: Time taken by the mice to enter the dark compartment at each trial; and the total time spent by the animal in the dark compartment, using a stop-watch.
After the last exploration trial, the mice are placed in the larger compartment as done in the trial sessions. […]

COc1cc2c(cc1OC)C(=O)C(CC1CCN(Cc3ccccc3)CC1)C2 (stereo not shown) [Donepezil] gave a No. of crossings of 1.17 ± 0.17.
